Key:
[1] = target: T1, human TLR7 (Homo sapiens, UniProt Q9NYK1); assay: TLR7 inhibition reporter assay (HEK-Blue cells, SEAP reporter, gardiquimod stimulation); type: cell-based; conditions: HEK-Blue cells overexpressing human TLR7, gardiquimod 7.5 μM
T1 construct: host or cells: HEK-Blue cells
T1 sequence (Q9NYK1 27-1049): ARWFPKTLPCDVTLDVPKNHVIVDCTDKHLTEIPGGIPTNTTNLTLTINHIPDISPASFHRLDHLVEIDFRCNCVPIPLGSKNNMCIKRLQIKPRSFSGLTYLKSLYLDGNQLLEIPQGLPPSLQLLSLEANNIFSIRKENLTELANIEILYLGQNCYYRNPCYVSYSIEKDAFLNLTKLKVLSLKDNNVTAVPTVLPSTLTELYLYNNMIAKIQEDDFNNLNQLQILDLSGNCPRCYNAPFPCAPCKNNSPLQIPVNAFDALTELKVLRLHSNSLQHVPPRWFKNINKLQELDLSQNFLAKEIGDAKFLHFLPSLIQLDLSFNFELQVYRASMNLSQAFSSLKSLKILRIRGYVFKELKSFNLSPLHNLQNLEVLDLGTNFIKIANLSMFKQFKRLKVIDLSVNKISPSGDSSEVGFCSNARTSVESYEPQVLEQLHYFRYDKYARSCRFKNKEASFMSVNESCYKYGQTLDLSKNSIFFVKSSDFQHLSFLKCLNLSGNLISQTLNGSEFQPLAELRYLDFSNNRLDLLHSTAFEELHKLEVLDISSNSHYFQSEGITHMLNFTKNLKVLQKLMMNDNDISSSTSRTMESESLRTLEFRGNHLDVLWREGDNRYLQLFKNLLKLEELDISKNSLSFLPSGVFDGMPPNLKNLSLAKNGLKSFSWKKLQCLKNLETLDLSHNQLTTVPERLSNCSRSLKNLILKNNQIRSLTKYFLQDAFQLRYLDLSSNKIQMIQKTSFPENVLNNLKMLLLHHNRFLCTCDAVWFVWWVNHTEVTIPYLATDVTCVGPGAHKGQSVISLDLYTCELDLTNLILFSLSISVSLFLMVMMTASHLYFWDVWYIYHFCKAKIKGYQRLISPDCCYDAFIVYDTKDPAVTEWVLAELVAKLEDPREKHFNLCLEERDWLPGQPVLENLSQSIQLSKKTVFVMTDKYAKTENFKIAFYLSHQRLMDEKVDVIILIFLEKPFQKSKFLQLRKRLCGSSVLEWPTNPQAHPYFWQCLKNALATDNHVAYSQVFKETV
Summary of the method: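 In this cell reporter format, test compounds at 0.05 nM-50 μM final incubate 22 h with seeded cells (TLR7 15000, TLR8 20,000 per well). SEAP read-out by HEK-Blue Detection medium yields % inhibition relative to agonist/DMSO and known-inhibitor wells.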

[2] = test system: Imiquimod-induced psoriasis; assay: Imiquimod induced psoriasis in mice; type: in vivo, mouse; conditions: male C57BL/6 mice, vs vehicle control
Method: Imiquimod Induced Psoriasis:
Male C57BL/6 mice of 8-9 week age were used to evaluate the impact of TLR7/8/9 inhibitors on Imiquimod-induced psoriasis. Mice (7 to 10 per group) were randomized into different treatment groups based on body weight. Mice from the respective treatment groups were treated orally, once daily for 6 days with vehicle or test compound. Psoriasis was induced by application of imiquimod cream on the shaved back region of the mice everyday for 6 days. Disease severity was monitored daily by recording of skin thickness, erythema and scaling. A cumulative disease score was also calculated to reflect the impact on the overall severity of inflammation in this model. At the end of experiment, all mice were euthanized by CO2 asphyxiation and skin samples were subjected for histology. At the end of experiment, one way ANOVA with Dunnett's test was performed to calculate the significance of test compound treated group vs. vehicle control group. Overall percent reduction in imiquimod induced psoriasis was calculated for test compound treated group vs vehicle control group.

[3] = test system: TLR9; assay: In vivo mouse TLR9 PD model (CpG-ODN challenge, plasma IL-6); conditions: oral
Method: (§1) In Vivo Mouse TLR7 and TLR9 PD Model:
(§2) Adult male C57BL/6 mice were used for the experiments. Mice (7 to 10 per group) were randomized into different treatment groups based on body weight. Mice from the respective treatment groups were administered orally with vehicle or test compound. Thirty min after the oral administration of vehicle or test compound, mice were challenged with intraperitoneal injection of gardiquimod for TLR7 PD model and CpG-ODN for TLR9 PD model. Ninety minutes after gardiquimod injection and 120 minutes after CpG-ODN injection, mice were bled under isoflurane anaesthesia and plasma IL-6 level was estimated by using commercially available ELISA kit (BD Biosciences). At the end of experiment, mean cytokine data was plotted and one way ANOVA with Dunnett's test was performed to calculate the significance of test compound treated group vs. vehicle control group. Percent inhibition of cytokine induction was calculated for test compound treated group vs vehicle control group.

[4] = test system: TLR7; assay: In vivo mouse TLR7 PD model (gardiquimod challenge, plasma IL-6); conditions: oral
Method: as §1, §2

[5] = 0.1 mg/kg orally once daily for 6 days
[6] = 1 mg/kg orally once daily for 6 days
[7] = 10 mg/kg orally once daily for 6 days
[8] = 30 mg/kg orally once daily for 6 days

## COc1ccc(-c2[nH]c3ccc(C4CCN(C(=O)CN(C)C)CC4)cc3c2C(C)C)cc1OC [Example 209, 1-(4-(2-(3,4-dimethoxyphenyl)-3-isopropyl-1H-indol-5-yl)piperidin-1-yl)-2-(dimethylamino)ethan-1-one]
[1]
  IC50: 0.012 µM
[2]; [5]
  % inhibition Cumulative score: 3%
  % inhibition Erythema: 3%
  % inhibition Scaling: 13%
  % inhibition Skin Thickness: 0%
[2]; [6]
  % inhibition Cumulative score: 27%
  % inhibition Erythema: 26%
  % inhibition Scaling: 38%
  % inhibition Skin Thickness: 18%
[2]; [7]
  % inhibition Cumulative score: 40%
  % inhibition Erythema: 41%
  % inhibition Scaling: 50%
  % inhibition Skin Thickness: 29%
[2]; [8]
  % inhibition Cumulative score: 49%
  % inhibition Erythema: 53%
  % inhibition Scaling: 63%
  % inhibition Skin Thickness: 32%
[3]; dose 1 mg/kg
  % inhibition of IL6: 29%
[3]; dose 10 mg/kg
  % inhibition of IL6: 37%
[3]; dose 30 mg/kg
  % inhibition of IL6: 37%
[3]; dose 100 mg/kg
  % inhibition of IL6: 51%
[4]; dose 0.001 mg/kg
  % inhibition of IL6: 11%
[4]; dose 0.01 mg/kg
  % inhibition of IL6: 21%
[4]; dose 0.1 mg/kg
  % inhibition of IL6: 61%
[4]; dose 1 mg/kg
  % inhibition of IL6: 86%

Source: patent publication US11180474B2 (BRISTOL-MYERS SQUIBB COMPANY, priority 2016, dated 2021)
